From the supplement of paper PMC10307832

How the values were obtained:
Test in all cases: relative viability (nuclei count vs DMSO), 5 days (fraction); higher = more cells survive
Sorafenib + Decitabine = compound: CNC(=O)c1cc(Oc2ccc(NC(=O)Nc3ccc(Cl)c(C(F)(F)F)c3)cc2)ccn1 [Sorafenib] + Nc1ncn([C@H]2C[C@H](O)[C@@H](CO)O2)c(=O)n1 [Decitabine] (partner 2 µM)
In short: (§1)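 Relative viability divides the nuclei count in treated wells by that in vehicle wells. Lung cancer cell lines were seeded in 1536-well plates, dosed by pin tool the next day, and fixed and stained after 5 days in one step with final 0.05% Triton X-100, 1% formaldehyde and 1 ug/ml Hoechst. Dosing was a single drug or a fixed anchor-drug dose plus five library-drug doses (not always all listed) in √10 steps, and values are medians of duplicate plates imaged at 4×.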

Sorafenib + Linsitinib = compound: CNC(=O)c1cc(Oc2ccc(NC(=O)Nc3ccc(Cl)c(C(F)(F)F)c3)cc2)ccn1 [Sorafenib] + C[C@]1(O)C[C@@H](c2nc(-c3ccc4ccc(-c5ccccc5)nc4c3)c3c(N)nccn32)C1 [Linsitinib] (partner 1 µM)
In short: as §1

Sorafenib + Vorinostat = compound: CNC(=O)c1cc(Oc2ccc(NC(=O)Nc3ccc(Cl)c(C(F)(F)F)c3)cc2)ccn1 [Sorafenib] + O=C(CCCCCCC(=O)Nc1ccccc1)NO [Vorinostat] (partner 1 µM)
In short: as §1

Sorafenib + Navitoclax = compound: CNC(=O)c1cc(Oc2ccc(NC(=O)Nc3ccc(Cl)c(C(F)(F)F)c3)cc2)ccn1 [Sorafenib] + CC1(C)CCC(c2ccc(Cl)cc2)=C(CN2CCN(c3ccc(C(=O)NS(=O)(=O)c4ccc(N[C@H](CCN5CCOCC5)CSc5ccccc5)c(S(=O)(=O)C(F)(F)F)c4)cc3)CC2)C1 [Navitoclax] (partner 0.5 µM)
In short: as §1

Sorafenib + Lapatinib = compound: CNC(=O)c1cc(Oc2ccc(NC(=O)Nc3ccc(Cl)c(C(F)(F)F)c3)cc2)ccn1 [Sorafenib] + CS(=O)(=O)CCNCc1ccc(-c2ccc3ncnc(Nc4ccc(OCc5cccc(F)c5)c(Cl)c4)c3c2)o1 [Lapatinib] (partner 2 µM)
In short: as §1

Cell Line	relative viability (Sorafenib + Decitabine; first compound 0.08 µM)	relative viability (Sorafenib + Decitabine; first compound 0.253 µM)	relative viability (Sorafenib + Decitabine; first compound 2.53 µM)	relative viability (Sorafenib + Decitabine; first compound 8 µM)	relative viability (Sorafenib + Linsitinib; first compound 0.08 µM)	relative viability (Sorafenib + Linsitinib; first compound 0.253 µM)	relative viability (Sorafenib + Linsitinib; first compound 2.53 µM)	relative viability (Sorafenib + Linsitinib; first compound 8 µM)	relative viability (Sorafenib + Vorinostat; first compound 0.08 µM)	relative viability (Sorafenib + Vorinostat; first compound 0.253 µM)	relative viability (Sorafenib + Vorinostat; first compound 2.53 µM)	relative viability (Sorafenib + Vorinostat; first compound 8 µM)	relative viability (Sorafenib + Navitoclax; first compound 0.08 µM)	relative viability (Sorafenib + Navitoclax; first compound 0.253 µM)	relative viability (Sorafenib + Navitoclax; first compound 2.53 µM)	relative viability (Sorafenib + Navitoclax; first compound 8 µM)	relative viability (Sorafenib + Lapatinib; first compound 0.08 µM)	relative viability (Sorafenib + Lapatinib; first compound 0.253 µM)	relative viability (Sorafenib + Lapatinib; first compound 2.53 µM)	relative viability (Sorafenib + Lapatinib; first compound 8 µM)
HCC-827	0.316	0.3	0.323	0.331	0.934	0.88	0.986	0.851	0.837	0.572	0.844	0.667	1.04	1.04	0.984	0.905	0.23	0.191	0.155	0.237
HCC-78	0.752	0.634	0.608	0.596	0.562	0.42	0.457	0.573	0.459	0.331	0.532	0.496	0.814	0.731	0.739	0.84	1.06	0.755	0.815	0.86
HCC-366	0.337	0.295	0.34	0.279	0.66	0.628	0.732	0.463	0.315	0.343	0.256	0.22	1.11	0.944	1.06	1.01	1.21	0.859	0.805	1.04
HARA	0.633	0.465	0.592	0.461	1.13	0.859	0.94	0.927	0.517	0.6	0.512	0.569	1.17	1.08		1.13	0.838	0.625	0.825	0.638
CAL-12T					0.889		0.834	0.656	0.723	0.722	0.72	0.494	1.32	1.19	1.06	0.64	0.768	0.685	0.724	0.682
NCI-H596	0.987	1.01	1.16	1.05	1.06	0.982	1.07	1.26	0.748	0.547	0.929	0.717	0.892	1.13	1.02	1.02	1.07	1.11	1.52	0.995
HCC-44		0.862	0.886	0.866	0.68	0.629		0.658	1.03	1.05	1.09	1.16		0.92	1.03	0.909	0.926	0.919	0.949	0.812
NCI-H1650	0.443	0.61	0.49	0.439					0.505	0.567	0.633	0.424	1.2	1.1	1.29	1.29	0.96	0.776	0.787	0.224
NCI-H1651	0.658	0.564	0.577	0.501	1.14	0.885	0.91	0.396	0.504	0.461	0.6	0.542	1.04	0.985	1.04	0.472	0.912	0.696	0.849	0.365
NCI-H1793	0.531	0.535	0.464		1.18	0.896	1.01	1.21	0.783	0.739	1.05	0.578	0.569	0.476	0.932	0.39	0.71	0.833	0.949	0.221
PC-14	0.22	0.177	0.225	0.156	1.03	0.96	0.918	0.756	0.833	0.721	0.641	0.481	1.02	0.949	0.888	0.955	0.434	0.303	0.401	0.534
COR-L23	0.417	0.374	0.501	0.332	1.05	0.814	0.866	0.531	0.512	0.413	0.478	0.32	1.03	0.898	1.1	0.485	1.08	0.795	0.921	0.914
NCI-H2342	0.778	0.676	0.716	0.712					0.806	0.628	0.689	0.645								
NCI-H650	0.343	0.295	0.34	0.278	0.81	0.664	0.776	0.716	0.855	0.257	0.371	0.449					0.986	0.855	0.946	0.611
NCI-H2023	0.235	0.232	0.22	0.189	0.733	0.735	0.669	0.497	0.954	0.571	0.599	0.339	1.02	0.984	1.01	0.978		0.738	0.82	0.244
NCI-H2087	0.304	0.231	0.172	0.107	0.756	0.853	0.956	0.275	0.615	0.545	0.474	0.209	1.05	0.772	0.892	0.29	0.958	0.711	1.06	0.611
NCI-H441	0.23	0.146	0.207	0.277	0.563	0.417	0.355	0.302	0.638	0.756	0.547	0.47	0.488	0.431	0.471	0.417				
